Calls of active or inactive are those of the source.
Key:
[1] = biological target: T1, Oxysterols receptor LXR-beta (Homo sapiens, UniProt P55055); type: functional, cell-based;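 also: Cell-based luminescence dose-response assay of agonist activity at LXR, run as a confirmatory counterscreen to a daf-12 agonist screen; HEK293 cells with Gal4-LXR fusion and GAL4-driven luciferase reporter; agonist potency from rising luciferase signal of a Gal4-LXR reporter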
T1 sequence (P55055 whole entry): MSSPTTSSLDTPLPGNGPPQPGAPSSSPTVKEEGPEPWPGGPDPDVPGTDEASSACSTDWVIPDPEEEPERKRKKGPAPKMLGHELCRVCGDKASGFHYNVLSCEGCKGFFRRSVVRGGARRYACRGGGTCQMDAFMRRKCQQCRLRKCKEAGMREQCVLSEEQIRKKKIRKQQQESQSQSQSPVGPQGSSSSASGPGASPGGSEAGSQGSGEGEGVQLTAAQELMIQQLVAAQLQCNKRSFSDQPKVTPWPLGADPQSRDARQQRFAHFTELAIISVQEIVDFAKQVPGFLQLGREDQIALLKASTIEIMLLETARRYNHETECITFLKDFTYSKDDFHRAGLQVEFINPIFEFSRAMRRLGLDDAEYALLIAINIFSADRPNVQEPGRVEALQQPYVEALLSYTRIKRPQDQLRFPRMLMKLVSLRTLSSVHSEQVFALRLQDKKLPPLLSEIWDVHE

[2] = Luminescence-based counterscreen assay for KLF5 inhibitors: dose response cell-based high throughput screening assay to identify cytotoxic compounds using the IEC-6 intestinal epithelial cell line. [Related pubchem assays: 1700 (Primary screen.), 1834 (Confirmation screen.), 1858 (Summary AID.), 1905 (Counterscreen.)]; type: functional
cells [3] = assay: cells
cells [4] = type: functional, cell-based
[5] = biological target: T2, Nuclear receptor subfamily 0 group B member 1 (Homo sapiens, UniProt P51843); type: functional, cell-based;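 also: HEK293T cells transfected with SF-1 and DAX-1 plus StAR promoter luciferase reporter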
T2 sequence (P51843 whole entry): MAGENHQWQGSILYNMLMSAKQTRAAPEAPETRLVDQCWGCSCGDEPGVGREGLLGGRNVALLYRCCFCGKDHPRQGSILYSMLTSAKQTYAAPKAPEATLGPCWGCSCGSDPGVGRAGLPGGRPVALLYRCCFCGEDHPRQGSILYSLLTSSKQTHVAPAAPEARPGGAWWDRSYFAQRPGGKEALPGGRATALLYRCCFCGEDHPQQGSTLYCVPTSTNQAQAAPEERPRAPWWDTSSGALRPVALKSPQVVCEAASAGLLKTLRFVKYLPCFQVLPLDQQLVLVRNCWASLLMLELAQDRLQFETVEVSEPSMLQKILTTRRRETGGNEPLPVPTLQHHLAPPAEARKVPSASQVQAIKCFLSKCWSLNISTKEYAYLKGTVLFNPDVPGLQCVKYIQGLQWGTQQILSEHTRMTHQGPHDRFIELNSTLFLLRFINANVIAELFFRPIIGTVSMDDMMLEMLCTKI

[6] = biological target: Eukaryotic translation initiation factor 4E (Mus musculus, UniProt P63073); assay: blockers of eIF4G binding by eIF4E – biochemical, TR-FRET, dose response (AID 855); type: functional;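 also: potency for disrupting eIF4E binding to eIF4GI seen as loss of FRET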
Caspase-3 = biological target: T3, Caspase-3 (Homo sapiens, UniProt P42574); assay: activators of human procaspase-3 D3A mutant – biochemical, absorbance, PC-3 D3A mutant, counter-screen for dual procaspase-3/7 activator project, dose response (AID 504328)
T3 sequence (P42574 whole entry): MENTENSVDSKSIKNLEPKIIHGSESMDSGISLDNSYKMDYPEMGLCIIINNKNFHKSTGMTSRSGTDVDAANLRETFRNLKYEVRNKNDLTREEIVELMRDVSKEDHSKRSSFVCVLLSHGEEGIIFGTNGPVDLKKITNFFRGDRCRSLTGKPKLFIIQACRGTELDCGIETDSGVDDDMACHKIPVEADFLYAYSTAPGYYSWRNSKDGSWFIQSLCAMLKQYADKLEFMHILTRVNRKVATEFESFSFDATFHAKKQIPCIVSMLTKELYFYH

Caspase-7 = biological target: T4, Caspase-7 (Homo sapiens, UniProt P55210); assay: potency of procaspase-7 enzyme activation – biochemical, absorbance, human, dual procaspase-3/-7 activator project, dose response (AID 504330)
T4 sequence (P55210 whole entry): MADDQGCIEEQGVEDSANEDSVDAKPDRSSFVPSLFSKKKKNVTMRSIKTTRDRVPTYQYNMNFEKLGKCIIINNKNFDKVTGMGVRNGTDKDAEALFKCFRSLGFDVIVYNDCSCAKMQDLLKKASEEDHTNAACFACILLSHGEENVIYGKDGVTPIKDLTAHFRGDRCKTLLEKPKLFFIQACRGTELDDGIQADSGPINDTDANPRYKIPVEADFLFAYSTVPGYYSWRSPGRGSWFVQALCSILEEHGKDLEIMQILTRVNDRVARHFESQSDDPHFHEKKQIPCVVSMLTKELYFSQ

[7] = A cytotoxicity screen of small molecule inhibitors of the PhoP region in Salmonella typhi identified in the primary screen. [Related pubchem assays: 1850, 1864, 1985 ]; type: functional
Mu-type opioid receptor = Mu-type opioid receptor (Homo sapiens, UniProt P35372); assay: (§1) Counterscreen for agonists of heterodimerization of the mu 1 (OPRM1) and delta 1 (OPRD1) opioid receptors: Luminescence-based cell-based high throughput dose response assay to identify agonists of OPRM1 homodimerization.; type: functional
[8] = biological target: Delta-type opioid receptor (Homo sapiens, UniProt P41143); assay: as §1, with “of OPRD1” for “of OPRM1”, “homodimerization. [Related pubchem assays (depositor defined):AID504326, AID504355, AID504692, AID504904, AID504905]” for “homodimerization.”; type: functional
[9] = biological target: 5-hydroxytryptamine receptor 5A (Homo sapiens, UniProt P47898); assay: Counterscreen for agonists of OPRM1-OPRD1 heterodimerization: luminescence-based cell-based high throughput dose response assay to identify agonists of 5-hydroxytryptamine (serotonin) 5A receptor (HTR5A). [Related pubchem assays (depositor defined):AID504326, AID504355, AID504692, AID504904, AID504905]; type: functional
X-box-binding protein 1 = X-box-binding protein 1 (Homo sapiens, UniProt P17861); type: functional, Cricetulus griseus;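 also: confirmatory dose-response counter-screen serving a CHOP assay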
[10] = biological target: Melanin-concentrating hormone receptor 1 (Homo sapiens, UniProt Q99705); assay: Late-stage fluorescence-based counterscreen for antagonists of the G-protein coupled receptor 7 (GPR7): cell-based dose response assay to identify antagonists of the melanin-concentrating hormone receptor 1 (MCHR1). [Related pubchem assays (depositor defined):AID1861, AID1880, AID1952, AID2148, AID2251, AID2257, AID485339]; type: functional;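 also: stimulated with 30 nM MCH peptide agonist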
[11] = biological target: T5, Neuropeptides B/W receptor type 1 (Homo sapiens, UniProt P48145); assay: human NPBW1 receptor blockade, IC50 – cell-based, fluorescence, dose response, late-stage follow-up (AID 463251); type: functional
T5 sequence (P48145 whole entry): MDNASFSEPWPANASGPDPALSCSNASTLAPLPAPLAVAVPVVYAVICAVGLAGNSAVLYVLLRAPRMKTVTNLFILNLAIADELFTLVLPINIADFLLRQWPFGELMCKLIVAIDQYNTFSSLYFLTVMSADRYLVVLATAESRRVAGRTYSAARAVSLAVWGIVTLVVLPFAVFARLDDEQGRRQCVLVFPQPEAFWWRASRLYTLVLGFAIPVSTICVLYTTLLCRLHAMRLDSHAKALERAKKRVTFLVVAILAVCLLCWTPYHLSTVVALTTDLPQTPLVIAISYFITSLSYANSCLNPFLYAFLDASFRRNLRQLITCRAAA

BJ [12] = assay: cells; type: functional, cell-based; conditions: Homo sapiens
[13] = Luminescence Cell-Based Dose Confirmation HTS to Identify Inhibitors of Platelet Dense Granule Release. [Related pubchem assays: 1663 (Primary HTS), 1678 (Summary of Project)]; type: functional
BJ [14] = assay: BJ-TERT fibroblast viability loss – cell-based, RAS-independent, luminescence, dose response (AID 1933); type: functional; conditions: Homo sapiens
BJ [15] = assay: BJ-TERT-LT-ST fibroblast viability loss – cell-based, RAS-independent, luminescence, dose response (AID 1935); type: functional; conditions: Homo sapiens;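 also: BJ fibroblasts immortalized with TERT plus LT and ST oncogenes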
[16] = DRD fibroblast viability loss – cell-based, non-viral oncogenic, luminescence, dose response (AID 1934); type: functional; conditions: Homo sapiens
[17] = biological target: Luciferin 4-monooxygenase (Photinus pyralis, UniProt P08659); assay: inhibition of purified Photinus pyralis luciferase – biochemical, luminescence, dose response (AID 1891)
[18] = biological target: Glyceraldehyde-3-phosphate dehydrogenase (Homo sapiens, UniProt P04406)
Glyceraldehyde-3-phosphate dehydrogenase, sequence (P04406 whole entry): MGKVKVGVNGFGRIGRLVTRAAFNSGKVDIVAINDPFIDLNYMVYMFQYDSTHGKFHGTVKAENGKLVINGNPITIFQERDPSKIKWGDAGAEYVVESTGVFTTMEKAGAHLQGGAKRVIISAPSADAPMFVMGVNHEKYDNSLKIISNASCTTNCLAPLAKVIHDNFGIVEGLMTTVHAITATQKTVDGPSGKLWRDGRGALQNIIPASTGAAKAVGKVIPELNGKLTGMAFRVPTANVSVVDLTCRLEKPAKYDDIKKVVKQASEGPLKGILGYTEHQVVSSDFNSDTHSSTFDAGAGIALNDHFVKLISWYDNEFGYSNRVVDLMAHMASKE

Melanin-concentrating hormone receptor 1, sequence (Q99705 whole entry): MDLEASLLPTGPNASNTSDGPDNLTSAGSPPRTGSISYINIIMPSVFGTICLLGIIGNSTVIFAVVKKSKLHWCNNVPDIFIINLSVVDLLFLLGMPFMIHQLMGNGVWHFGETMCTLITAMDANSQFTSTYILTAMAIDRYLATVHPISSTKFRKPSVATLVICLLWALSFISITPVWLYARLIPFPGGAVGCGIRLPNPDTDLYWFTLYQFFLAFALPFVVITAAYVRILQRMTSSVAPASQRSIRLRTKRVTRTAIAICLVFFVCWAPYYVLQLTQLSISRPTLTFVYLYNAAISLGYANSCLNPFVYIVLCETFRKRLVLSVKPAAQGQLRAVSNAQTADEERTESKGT
Delta-type opioid receptor, sequence (P41143 whole entry): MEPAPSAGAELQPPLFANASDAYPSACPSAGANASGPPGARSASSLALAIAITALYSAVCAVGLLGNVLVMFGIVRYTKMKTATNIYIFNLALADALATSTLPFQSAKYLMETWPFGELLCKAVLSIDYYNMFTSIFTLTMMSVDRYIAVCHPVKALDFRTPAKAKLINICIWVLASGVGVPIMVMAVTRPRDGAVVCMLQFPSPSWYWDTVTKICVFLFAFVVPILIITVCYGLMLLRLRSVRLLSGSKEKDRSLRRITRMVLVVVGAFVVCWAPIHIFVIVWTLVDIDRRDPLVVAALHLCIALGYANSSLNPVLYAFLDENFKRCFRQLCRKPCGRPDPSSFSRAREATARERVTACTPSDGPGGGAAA
Luciferin 4-monooxygenase, sequence (P08659 whole entry): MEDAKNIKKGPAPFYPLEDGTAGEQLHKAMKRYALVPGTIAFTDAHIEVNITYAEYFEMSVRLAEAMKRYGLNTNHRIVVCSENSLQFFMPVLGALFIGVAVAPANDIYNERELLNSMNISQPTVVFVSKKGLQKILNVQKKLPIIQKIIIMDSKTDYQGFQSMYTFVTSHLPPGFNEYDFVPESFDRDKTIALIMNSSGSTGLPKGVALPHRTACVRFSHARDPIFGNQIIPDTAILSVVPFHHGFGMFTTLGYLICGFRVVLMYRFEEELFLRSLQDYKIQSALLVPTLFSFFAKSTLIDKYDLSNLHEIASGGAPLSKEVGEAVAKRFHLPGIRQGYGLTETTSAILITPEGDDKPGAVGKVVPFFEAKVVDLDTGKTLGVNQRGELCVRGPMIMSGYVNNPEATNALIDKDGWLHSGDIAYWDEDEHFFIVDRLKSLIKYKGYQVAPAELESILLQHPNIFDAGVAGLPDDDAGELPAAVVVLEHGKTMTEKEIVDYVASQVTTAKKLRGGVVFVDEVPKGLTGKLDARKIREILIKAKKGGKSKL
Mu-type opioid receptor, sequence (P35372 whole entry): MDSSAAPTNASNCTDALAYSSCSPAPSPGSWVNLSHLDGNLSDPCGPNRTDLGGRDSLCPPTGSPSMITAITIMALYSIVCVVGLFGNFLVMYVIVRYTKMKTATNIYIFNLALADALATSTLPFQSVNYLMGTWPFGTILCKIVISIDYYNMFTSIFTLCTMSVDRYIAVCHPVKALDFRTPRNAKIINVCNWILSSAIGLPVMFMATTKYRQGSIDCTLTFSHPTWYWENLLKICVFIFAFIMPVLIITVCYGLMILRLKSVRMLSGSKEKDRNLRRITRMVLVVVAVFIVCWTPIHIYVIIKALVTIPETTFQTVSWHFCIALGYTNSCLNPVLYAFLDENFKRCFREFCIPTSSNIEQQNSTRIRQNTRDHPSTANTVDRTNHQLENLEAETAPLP
Eukaryotic translation initiation factor 4E, sequence (P63073 whole entry): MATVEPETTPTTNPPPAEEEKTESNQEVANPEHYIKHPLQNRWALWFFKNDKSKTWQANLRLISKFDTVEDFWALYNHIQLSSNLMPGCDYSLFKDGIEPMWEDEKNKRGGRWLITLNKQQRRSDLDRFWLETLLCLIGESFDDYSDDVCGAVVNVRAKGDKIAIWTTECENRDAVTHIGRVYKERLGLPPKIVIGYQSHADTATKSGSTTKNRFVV
5-hydroxytryptamine receptor 5A, sequence (P47898 whole entry): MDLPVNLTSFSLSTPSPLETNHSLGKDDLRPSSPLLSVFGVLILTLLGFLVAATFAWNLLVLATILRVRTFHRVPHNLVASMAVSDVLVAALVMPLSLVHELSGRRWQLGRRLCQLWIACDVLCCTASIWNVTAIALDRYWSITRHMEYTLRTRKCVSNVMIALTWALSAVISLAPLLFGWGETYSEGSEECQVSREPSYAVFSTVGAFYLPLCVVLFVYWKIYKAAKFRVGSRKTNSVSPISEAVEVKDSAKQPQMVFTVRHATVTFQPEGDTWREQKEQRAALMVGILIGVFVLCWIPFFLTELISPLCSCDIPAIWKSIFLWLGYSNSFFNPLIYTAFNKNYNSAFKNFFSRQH
X-box-binding protein 1, sequence (P17861 whole entry): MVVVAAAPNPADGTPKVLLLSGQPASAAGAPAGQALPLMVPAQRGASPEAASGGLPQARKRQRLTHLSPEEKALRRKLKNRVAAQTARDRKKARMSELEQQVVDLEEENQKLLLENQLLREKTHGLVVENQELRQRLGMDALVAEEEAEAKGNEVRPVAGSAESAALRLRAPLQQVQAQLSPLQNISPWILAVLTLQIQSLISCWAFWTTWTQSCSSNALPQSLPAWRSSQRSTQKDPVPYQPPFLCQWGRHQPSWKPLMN

CCc1ccc(NC(=O)c2cnn3ccccc23)cc1
EC50 [1]: > 67.5 µM (inactive)
IC50 [2]: > 39.8 µM (not active)
EC50 (cells [3]): > 67.5 µM (inactive)
IC50 (cells [4]): > 67.5 µM (inactive)
IC50 [5]: > 0.0926 µM (active)

CCOc1ccc(-n2c(-c3ccco3)n[nH]c2=S)cc1
IC50 [6]: > 64 µM (inactive)

O=C(Nc1ccc(Cc2ccncc2)cc1)C1CCC(N2C(=O)C3C4C=CC(C5CC45)C3C2=O)CC1 (stereo unspecified)
EC50 (Caspase-3): > 85.3 µM (inactive)
EC50 (Caspase-7): > 85.3 µM (inactive)

COCCn1c(SCC(=O)Nc2nnc(C)s2)nnc1-c1c[nH]c2ccccc12
EC50 [7]: > 50 µM (active)

COc1cc(C(=O)OC(C)C(=O)NCC2CCCCC2)cc(NC(=O)c2ccco2)c1OC (stereo unspecified)
EC50 (Mu-type opioid receptor): > 92.5 µM (inactive)
EC50 [8]: > 92.5 µM (inactive)
EC50 [9]: > 92.5 µM (inactive)
Absolute IC50 (XBP1) (X-box-binding protein 1): 10 µM

Cc1cc(C)c2nc(N=C(N)NC(=O)c3ccccc3)nc(C)c2c1
EC50 [7]: > 50 µM (active)

O=C(C1CCCCN1Cc1c(F)cccc1Cl)N1CCN(c2ccc([N+](=O)[O-])cc2)CC1 (stereo unspecified)
IC50 [10]: 3.3 µM (active)
IC50 [11]: 3.3 µM (active)

O=c1c(Oc2ccc(O)cc2)c(Cl)cnn1-c1ccc(F)cc1
IC50 [10]: 8 µM (active)
IC50 [11]: 8.7 µM (active)

CN(CCO)c1ccc(/C=N/Nc2nncc3ccccc23)cc1
EC50 (BJ [12]): 10.8 µM (active)
EC50 [13]: 0.533 µM (active)
IC50 [2]: 24.7 µM (not active)
EC50 (BJ [14]): > 150 µM (not active)
EC50 (BJ [15]): > 150 µM (not active)
EC50 [16]: 4.01 µM (active)
EC50 [17]: 0.67 µM (active)

CC(C)CNC(=O)c1cc(-c2ccc(Cl)cc2Cl)n[nH]1
IC50 [18]: > 10 µM (inconclusive)

From ChEMBL document CHEMBL1201862, “PubChem BioAssay data set” (2004)
